In patent US20030108619A1, “Bone-strengthening agents, food compositions for strengthening bone and feed compositions for strengthening bone” (priority 2000, published 2003):

What was measured:
femora [1] = assay: Amount of DNA in femora, Example 1; assay type: in vivo, rat; conditions: 5-weeks old rats
Procedure: (§1) 5-weeks old female Wistar rats (Convention) obtained from Japan SLC, Inc. (Hamamatsu, Japan) were used. 2. CPP-administered group: Basic feed+CPP (40 mg/100 g body weight) 3. Genistein-administered group: Basic feed+genistein (50 μg/100 g body weight) 4. CPP+genistein-administered group: Basic feed+CPP (40 mg/100 g body weight)+genistein (50 μg/100 g body weight) As the CPP, a solution of CPP-III (casein phosphopeptide content 85%) manufactured by Meiji Seika Kaisha, Ltd., dissolved in distilled water was used. As the genistein, a reagent (manufactured by Sigma Chemical Company in U.S. A.) extracted from soybean and highly purified, dissolved in a 10% ethanol solution was used. Animal groups each consisting of five animals were fed with the basic feed under constant temperature and constant humidity conditions of room temperature 25° C., and 55% humidity. In addition, the control group was administered with 1 ml/100 g body weight of purified distilled water and the other groups were each orally administered with CPP and/or genistein in the above-mentioned amounts once a day for 14 days by using a stomach tube. After 24 hours from the last administration, the rats were sacrificed and the femora were extracted. The extracted femora were used for the measurement of bone components as shown below. The diaphysial tissue and metaphysial tissue of the femora thus obtained were each crushed in 4.0 ml of a cold 0.1 N NaOH solution after homogenization of the bone tissue, shaken at 4° C. for 24 hours and extracted. After the alkali extraction, centrifugation treatment was performed at 1,000×g for 5 minutes and the supernatant fraction was used as a sample for the measurement of DNA. The measurement of the amount of DNA was performed in accordance with the method of Ceriotti (J. Biol. Chem., 214: 39-77, 1955). To a test tube containing 2.0 ml of a sample were added 1.0 ml of concentrated hydrochloric acid and 1.0 ml of a 0.04% indole solution and the test tube was shut with an aluminum cap, followed by heating on a boiling water bath for 10 minutes and then quenched on ice to terminate the reaction. Extraction with 4.0 ml of chloroform for 3 to 4 minutes was repeated several times and the amount of DNA was measured on a spectrophotometer (490 nm). The amount of DNA was calculated per wet weight (g) of bone tissue. Significant tests of respective measured values were performed by using Student's t-test. Values with a risk factor of 5% or less were taken as significant.

osteoclasts [2] = conditions: Biol. Pharm. Bull., 22, 805-809, 1999; cited from earlier work
femora [3] = assay: Dry weight of femora, Example 2; assay type: in vivo, rat
Procedure: (§2) 2. CPP-administered group: Basic feed+CPP (40 mg/100 g body weight)
(§3) 3. Genistein-administered group: Basic feed+genistein (50 μg/100 g body weight)
(§4) 4. CPP+genistein-administered group: Basic feed+CPP (40 mg/100 g body weight)+genistein (50 μg/100 g body weight)
(§5) As the CPP, a solution of CPP-III (casein phosphopeptide content 85%) manufactured by Meiji Seika Kaisha, Ltd., dissolved in distilled water was used. As the genistein, a reagent (manufactured by Sigma Chemical Company in U.S. A.) extracted from soybean and highly purified, dissolved in a 10% ethanol solution was used.
Animal groups each consisting of five animals were fed with the basic feed under constant temperature and constant humidity conditions of room temperature 25° C., and 55% humidity. […]
(§6) After washing the extracted femora in a cold 0.25 M sucrose solution to remove a soft tissue and drying it in a drier at 100° C. for about 16 hours, the dry weight of the femora was measured. After the measurement, the extracted femora were divided into diaphysis (cortical bone) and metaphysis (trabecular bone) and the amount of calcium in each of them was measured. […] The solutions were used as sample solutions and the amount of calcium therein was determined by using an atomic absorption spectrophotometer. […]
(§7) Significant tests of respective measured values were performed by using Student's t-test. […]

[4] = system: bone alkaline phosphatase; assay: Activity of femoral alkaline phosphatase, Example 1; assay type: in vivo, rat; conditions: 5-weeks old rats
Procedure: (§8) 5-weeks old female Wistar rats (Convention) obtained from Japan SLC, Inc. (Hamamatsu, Japan) were used.
as §2, §3, §4, §5
(§9) Animal groups each consisting of five animals were fed with the basic feed under constant temperature and constant humidity conditions of room temperature 25° C., and 55% humidity. In addition, the control group was administered with 1 ml/100 g body weight of purified distilled water and the other groups were each orally administered with CPP and/or genistein in the above-mentioned amounts once a day for 14 days by using a stomach tube. After 24 hours from the last administration, the rats were sacrificed and the femora were extracted. The extracted femora were used for the measurement of bone components as shown below.
(§10) The diaphysial tissue and metaphysial tissue of the femora obtained as described above were each dipped in 3 ml of a cold 6.5 mM barbital buffer (pH 7.4) and cut into small pieces and homogenized by using a Potter-Elvehjem homogenizer followed by ultrasonic treatment for 60 seconds for crushing. Further, the homogenate was centrifuged for 5 minutes at 600×g and the supernatant fraction was used as a crude enzyme solution.
(§11) The activity of bone alkaline phosphatase was measured in accordance with the method of Walter and Schutt (Bergmeyer H. U. (ed.). Methods of Enzymatic Analysis, Vol. 1-2, Academic Press, New York, pp. 856-860, 1974). The enzymatic reaction was initiated by adding 0.05 ml of the above-mentioned crude enzyme solution to 2 ml of 0.1M diethanolamine hydrochloride buffer (pH 9.8) containing disodium p-nitrophenyiphosphate as a substrate. The reaction was performed by incubation at 37° C. for 30 minutes. The reaction was terminated by adding 10 ml of 0.05N NaOH and the activity was expressed in terms of the amount (μmol) of free p-nitrophenol per 1 minute per the mass (mg) of the enzyme protein used. The concentration of the protein was measured in accordance with the method of Lowry et al. (J. Biol. Chem., 193: 265-273, 1951).
(§12) Significant tests of respective measured values were performed by using Student's t-test. Values with a risk factor of 5% or less were taken as significant.

femora [5] = assay: Amount of calcium in femora, Example 1; assay type: in vivo, rat; conditions: 5-weeks old rats
Procedure: as §8, §2, §3, §4, §5, §9
(§13) After washing the extracted femora in a cold 0.25 M sucrose solution to remove a soft tissue and drying it in a drier at 100° C. for about 16 hours, the dry weight of the femora was measured. After the measurement, the extracted femora were divided into diaphysis (cortical bone) and metaphysis (trabecular bone) and the amount of calcium in each of them was measured. That is, the obtained diaphysial tissue and metaphysial tissue of the femora were each charged in a test tube, to which was added 3 ml of concentrated nitric acid to decompose them at 120° C. for 24 hours. The solutions were used as sample solutions and the amount of calcium therein was determined by using an atomic absorption spectrophotometer. The amounts of calcium were expressed in terms of mg per 1 g of the dry weight of the bone tissue.
as §12

osteoclasts [6] = conditions: culture system using metaphysial tissue in the femora of old rats; Biochem. Pharmacol., 55: 71-76, 1998; cited from earlier work
femora [7] = assay: Dry weight of femora, Example 1; assay type: in vivo, rat
Procedure: as §8, §2, §3, §4
As the CPP, a solution of CPP-III (casein phosphopeptide content 85%) manufactured by Meiji Seika Kaisha, Ltd., dissolved in distilled water was used. As the genistein, a reagent (manufactured by Sigma Chemical Company in U.S. A.) extracted from soybean and highly purified, dissolved in a 10% ethanol solution was used. […]
as §6, §7

femora [8] = assay: Amount of DNA in femora, Example 2; assay type: in vivo, rat; conditions: 50-weeks old rats
Procedure: as §1, with “2.” for “5-weeks old female Wistar rats (Convention) obtained from Japan SLC, Inc. (Hamamatsu, Japan) were used. 2.”, “significant. 1) The materials and methods in Example 2 were the same as in Example 1 except that 50-weeks old normal female Wistar rats obtained from Japan SLC, Inc. (Hamamatsu, Japan) were used as test animals.” for “significant.”

osteoblasts = conditions: Res. Exp. Med. 197: 101-107, 1997; cited from earlier work
[9] = system: bone alkaline phosphatase; assay: Activity of femoral alkaline phosphatase, Example 2; assay type: in vivo, rat; conditions: 50-weeks old rats
Procedure: as §2, §3, §4, §5, §9, §10, §11
Significant tests of respective measured values were performed by using Student's t-test. Values with a risk factor of 5% or less were taken as significant. […]

femora [10] = assay: Amount of calcium in femora, Example 2; assay type: in vivo, rat; conditions: 50-weeks old rats
Procedure: as §2, §3, §4, §5, §9, §13, §12
1) The materials and methods in Example 2 were the same as in Example 1 except that 50-weeks old normal female Wistar rats obtained from Japan SLC, Inc. (Hamamatsu, Japan) were used as test animals.

## O=c1c(-c2ccc(O)cc2)coc2cc(O)cc(O)c12 [Genistein, genistein]
Femora [1]; diaphysis
  Amount of DNA in the diaphysis as compared with that of the control group: 1.06 times
Femora [1]; metaphysis
  Amount of DNA in the metaphysis as compared with that of the control group: 1.09 times
Femora [1]; oral 14 days, diaphysis
  Amount of DNA, Diaphysis: 1.895 ± 0.013 mg/g wet weight of bone
Femora [1]; oral 14 days, metaphysis
  Amount of DNA, Metaphysis: 2.894 ± 0.034 mg/g wet weight of bone
Osteoclasts [2]
  Effect of inhibiting the function of osteoclasts, potency relative to daidzein: 10 times
Femora [3]; 50-weeks old female Wistar rats, oral once a day for 14 days, CPP 40 mg/100 g, genistein 50 μg/100 g body weight
  Dry weight of femora: 475.3 ± 8.35 mg
Femora [3]; 50-weeks old rats, oral 14 days
  Dry weight of femora as compared with that of the control group: 1.08 times
[4]; diaphysis
  Activity of femoral alkaline phosphatase in the diaphysis as compared with that of the control group: 1.04 times
[4]; metaphysis
  Activity of femoral alkaline phosphatase in the metaphysis as compared with that of the control group: 1.04 times
[4]; oral 14 days, diaphysis
  The activity of alkaline phosphatase, Diaphysis: 1.809 ± 0.014 μmol/min/mg protein
[4]; oral 14 days, metaphysis
  The activity of alkaline phosphatase, Metaphysis: 1.853 ± 0.017 μmol/min/mg protein
Femora [5]; diaphysis
  Amount of calcium in the diaphysis as compared with that of the control group: 1.12 times
Femora [5]; metaphysis
  Amount of calcium in the metaphysis as compared with that of the control group: 1.07 times
Femora [5]; oral 14 days, diaphysis
  Bone calcium, Diaphysis: 225.1 ± 3.23 mg/g dry weight
Femora [5]; oral 14 days, metaphysis
  Bone calcium, Metaphysis: 204.1 ± 3.56 mg/g dry weight
Osteoclasts [6]
  Bone resorption by osteoclasts: directly inhibits the bone resorption by osteoclasts
Femora [7]; 5-weeks old female Wistar rats, oral once a day for 14 days, CPP 40 mg/100 g, genistein 50 μg/100 g body weight
  Dry weight of femora: 230.4 ± 1.20 mg
Femora [7]; 5-weeks old rats, oral 14 days
  Dry weight of femora as compared with that of the control group: 1.12 times
Femora [8]; diaphysis
  Amount of DNA in the diaphysis as compared with that of the control group: 1.14 times
Femora [8]; metaphysis, printed under [Amount of DNA in Femora]
  Amount of DNA in the metaphysis as compared with that of the control group: 1.05 times
Femora [8]; oral 14 days, diaphysis
  Amount of DNA, Diaphysis: 1.391 ± 0.043 mg/g wet weight of bone
Femora [8]; oral 14 days, metaphysis
  Amount of DNA, Metaphysis: 2.836 ± 0.041 mg/g wet weight of bone
osteoblasts
  Amount of DNA (index of increase in bone mineral content and cell growth by osteoblasts): causes an increase in the amount of DNA
[9]; diaphysis
  Activity of femoral alkaline phosphatase in the diaphysis as compared with that of the control group: 1.12 times
[9]; metaphysis
  Activity of femoral alkaline phosphatase in the metaphysis as compared with that of the control group: 1.12 times
[9]; oral 14 days, diaphysis
  The activity of alkaline phosphatase, Diaphysis: 0.653 ± 0.019 μmol/min/mg protein
[9]; oral 14 days, metaphysis
  The activity of alkaline phosphatase, Metaphysis: 0.744 ± 0.020 μmol/min/mg protein
Femora [10]; diaphysis
  Amount of calcium in the diaphysis as compared with that of the control group: 1.07 times
Femora [10]; metaphysis
  Amount of calcium in femora in the metaphysis as compared with that of the control group: 1.08 times
Femora [10]; oral 14 days, diaphysis
  Amount of bone calcium, Diaphysis: 229.2 ± 3.4 mg/g dry weight
Femora [10]; oral 14 days, metaphysis
  Amount of bone calcium, Metaphysis: 202.1 ± 3.8 mg/g dry weight
